Test results taken from PMC9982066, “Inhibition of Ehrlichia chaffeensis infection by cell-permeable macrocyclic peptides that bind type IV secretion effector Etf-1” (PNAS Nexus, 2023).
Entries after “also recorded” stand apart in the source; their conditions may differ. Starred links: 1 amine or outer side, 2 acyl side, 3 side chain; linkers in the order of their positions; H or OH if unused. Positions of bridges follow the written chain, without caps; N, C: chain ends. Non-standard residues stand in square brackets, D forms with d. Residues, ends and D or L forms follow the SMILES beside them. Trimesoyl = O=C(c1cc(C(=O)[*:2])cc(C(=O)[*:3])c1)[*:1]; d2Nal = N[C@H](Cc1ccc2ccccc2c1)C(=O)O; Dap = NC[C@H](N)C(=O)O

Experiments:
E. chaffeensis [1] = assay: E. chaffeensis infection of THP-1 cells, qPCR of 16S rRNA gene normalized to human actin; format: cell-based, Ehrlichia chaffeensis
Etf-1 = Etf-1 (Ehrlichia chaffeensis, UniProt Q2GG12); assay: FP assay of Etf-1 binding with FAM-labeled peptides
Etf-1, sequence (Q2GG12 entry or part of it): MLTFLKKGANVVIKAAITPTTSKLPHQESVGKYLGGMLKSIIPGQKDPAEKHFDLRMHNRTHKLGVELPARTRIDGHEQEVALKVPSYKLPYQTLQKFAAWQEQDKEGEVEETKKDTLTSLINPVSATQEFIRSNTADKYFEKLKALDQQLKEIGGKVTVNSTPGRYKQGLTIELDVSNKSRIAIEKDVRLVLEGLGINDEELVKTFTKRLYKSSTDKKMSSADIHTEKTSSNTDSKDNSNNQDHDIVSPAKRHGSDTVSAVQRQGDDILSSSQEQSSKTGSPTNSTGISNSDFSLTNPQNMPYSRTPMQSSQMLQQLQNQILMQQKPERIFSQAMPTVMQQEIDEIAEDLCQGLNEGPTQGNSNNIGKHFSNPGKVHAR

E. chaffeensis [2] = assay: morphological examination of E. chaffeensis infection of THP-1 cells by Diff-Quik staining

CC(C)C[C@H]1NC(=O)[C@H](CO)NC(=O)[C@H]2CCCN2C(=O)[C@H](CCC(N)=O)NC(=O)[C@H](Cc2c[nH]cn2)NC(=O)[C@H](Cc2ccc(O)cc2)NC(=O)c2cc3cc(c2)C(=O)NC[C@H](NC1=O)C(=O)N[C@@H](Cc1ccccc1)C(=O)N[C@H](Cc1ccc2ccccc2c1)C(=O)N[C@H](CCCNC(=N)N)C(=O)N[C@@H](CCCNC(=N)N)C(=O)N[C@H](CCCNC(=N)N)C(=O)N[C@@H](CCCNC(=N)N)C(=O)N[C@H](C(N)=O)CNC3=O [Peptide B7, TMA-Tyr-His-Gln-pro-Ser-leu-Dap-Phe-nal-arg-Arg-arg-Arg-Dap] (YHQ[dP]S[dL][Dap]F[d2Nal][dR]R[dR]R[Dap]-NH2; linker N-7-14 via Trimesoyl)
inhibition of E. chaffeensis infection (E. chaffeensis [1]; 10 μM, 2 days, vs DMSO control): significantly inhibited
dose dependence of inhibition of E. chaffeensis infection (E. chaffeensis [1]; 1, 5, and 10 μM): dose-dependent manner
Kd (Etf-1): 6.5 ± 0.7 µM
E. chaffeensis infection (numbers and sizes of morulae) (E. chaffeensis [2]; THP-1 cells, Fig. S4 (with Figs. 5, S3)): significantly inhibited; also recorded: potent inhibition
cytotoxicity (cell lysis in treated groups) (E. chaffeensis [2]; THP-1 host cells): least cytotoxicity
